Patent US10105351B2, “Neurofibromatoses therapeutic agents and screening for same” (University of Central Florida Research Foundation, Inc., priority 2012, dated 2018)
Structures can show the parent of a compound that is named as a salt. Where two headings read alike, the source gives them in different places.

Tests used:
[1] = system: merlin-null Schwann cells; test: Apo-ONE Homogeneous caspase-3/7 assay; format: cell-based, mouse; conditions: 8 hours, 384-well format
Method: (§1) FIGS. 8A-C. Phenotypic Apoptosis Assays. (A). Merlin-null Schwann cells in a 384-well format were incubated with the indicated compounds for 8 hours. Caspase-3/7 activity was measure with Apo-ONE Homogeneous Assay (Promega). n=32 wells. (B). Merlin-null Schwann cells in a 6-well format were treated with compounds (10 uM) for 24 hours. Membrane asymmetry was detected with Violet Ratiometric assay and read on a BD Cantos II flow cytometer. (C). Population distribution for B is shown.
(§2) In yet another aspect, compounds may be identified which induce programmed cell death or inhibit proliferation of Merlin-null Schwann cells. Merlin-pathway assays may be conducted to identify the subset of compounds that modulate the activity of known merlin pathways. The effector caspase cascade is activated in many extrinsic and intrinsic cell death pathways^29. […] The effect of compounds on caspase-3 activity can be measured by first lysing the cells and centrifuging to pellet the debris. […] Enzyme activity may be measured on an Envision plate reader at Ex400 nm/Em505 nm. The enzyme activity may be calculated from a standard curve generated using recombinant caspase-3 enzyme (R&D System, Inc.) and expressed as fold-increase in activity. […] Transfer of phosphatidylserine and phosphatidylethanolamine from the inner to the outer leaflet of the plasma membrane changes the membrane potential that is detected by F2N12S. […]

[2] = system: merlin-null Schwann cells; test: Propidium iodide and BrdU/7AAD flow cytometer cell cycle assays; format: cell-based, mouse
Method: FIGS. 9A-D. Phenotypic Proliferation Assays. (A) Merlin-null Schwann cells (384-well format) were treated with the indicated compounds and concentrations for 24 hours and labeled with EdU during the last 9 hours. Incorporation of EdU into S-phase cells was read on a Biotek H1 Hybrid reader. (B) The plate was also imaged with a Trophos high resolution fluorescence Plate Runner. (C). Merlin-null Schwann cells were grown in 6-well format and were treated with 5 uM compounds for 22 hours, then labeled with PI. The cell population profile is shown and was analyzed using the ModFit program. (D). Merlin-null Schwann cells were grown as in C but were labeled with BrdU during the final 3 hours of treatment then stained with 7AAD. The distribution of BrdU- and 7AAD-labelled cells is shown and was analyzed with Diva program. The BD Cantos II flow cytometer was used above.
In yet another aspect, identification of compounds that affect proliferation of Merlin-null mouse Schwann cells can be performed by conducting a Click-iT EdU Microplate Assay (Life Technologies) in the 384 well-plate format and then follow-up with BrdU/7AAD and propidium iodide flow cytometer assays. […] Fluorescence emission is measured on a Hybrid HT plate reader (FIG. 9A) as well as on a Trophos Plate RUNNER HD that captures images of the wells (FIG. 9B). […]

[3] = system: normal nf2^flox2/flox2 Schwann cells; test: Selectivity assay: cell viability of normal Schwann cells; conditions: one assay with mouse nf2^flox2/flox2 Schwann cells at P2
Method: (§3) The compounds were tested at 10 uM in 8 replicates in a 384-well format using the live cell protease assay (CellTiter-Fluor) and the orthogonal ATP-based assay (CellTiter-GLO) (both from Promega). We tested the compounds on two Merlin-null Schwann cell lines, L1, (used in the LOPAC screen) at passages ranging from 13-23 and an independently-derived line, L2, tested at passage 20 and 21.

[4] = system: merlin-null Schwann cells; test: Orthogonal ATP-based luminescence cell viability assay (CellTiter-GLO); conditions: for Orthogonal Assay Average of two, cell viability: average of two assays with one cell line at P18-23
[5] = system: merlin-null Schwann cells; test: Primary assay: live cell protease assay (CellTiter-Fluor), cell viability; conditions: for Primary Assay (m +/− sd), cell viability: mean and SD of four assays
Method: (§4) Cell viability was measured with the CellTiter-Fluor Live Protease Assay (Promega). […] One way ANOVA Kurskal-Wallis test was used with a Dunn's Multiple Comparison post-test.
as §3

[6] = system: merlin-null Schwann cells; conditions: 10 µM
Method: as §4, §3

[7] = system: merlin-null Schwann cells; conditions: 10 µM; remark: listed apart in the source
[8] = system: normal nf2^flox2/flox2 Schwann cells; conditions: 10 µM
Method: as §3

[9] = system: merlin-null Schwann cells; test: MultiTox-Fluor Multiplex Cytotoxicity Assay (assay validation and LOPAC pilot screen); format: cell-based, mouse; conditions: 50 μM; 384-well plate, 5,000 cells/well
Method: Merlin-null Schwann cells were seeded at 5,000 cells/well in an uncoated Corning Cell-Bind 384-well plate. A) Result of a rapamycin dose response study conducted with the MultiTox-Fluor assay is shown. B) Cell viability in the presence of 0.5% DMSO or 0.5% DMSO plus 50 μM rapamycin (RM) added 4 hours after plating was measured 24 hours later as described in the FIG. 3 legend.
A pilot screen of Sigma's LOPAC was conducted to test the reliability of our system. The 1280 compounds were tested at 10 μM in 0.5% DMSO in single wells. They were added 4 hours after cell plating and the MultiTox-Fluor assay was run 24 hours later. The positive control included cells treated with 50 μM rapamycin in 0.5% DMSO and the negative control included cells treated with 0.5% DMSO. The signals for live and dead protease activities were collected sequentially. […] The screen yielded 40 hits using a cut-off value equal to 80% of the live:dead signal of the rapamycin positive control which was equivalent to 50% of live cell signal (FIG. 5). The hits represent a spectrum of compounds that fall into 5 basic categories; 1) inhibitors of signaling kinases, 2) cell-cycle inhibitors, 3) pro-apoptotic agents, 4) receptor inhibitors and 5) modulators of cell metabolism.

[10] = system: merlin-null Schwann cells; test: Violet Ratiometric Membrane Asymmetry Probe/Dead Cell Apoptosis assay (flow cytometer); format: cell-based, mouse; conditions: 10 uM, 24 hours, 6-well format
Method: as §1, §2

[11] = 10 uM, 8 replicates, 384 well plate, two independently derived merlin-null Schwann cell lines at P13-23

Q: Which results are given for `N#C/C(=C\c1ccc(-c2cc(Cl)ccc2Cl)o1)C(=O)Nc1cccc2ncccc12` [AGK2, 2-Cyano-3-[5-(2,5-dichlorophenyl)-2-furanyl]-N-5-quinolinyl-2-propenamide]?
A: mechanism of apoptotic death with respect to caspase-3/7 activity [1]: caspase3/7-independent; anti-proliferative effects on the cells ([2]; 24 hours of drug treatment and S-phase labelling for the final 3 hours): did not reveal clear anti-proliferative effects; Selectivity Assay, cell viability ([3]; 10 uM): 42 % of DMSO Control; Orthogonal Assay Average of two, cell viability ([4]; 10 uM): 78.6 % of DMSO Control; activity on viability in orthogonal screen and dose response ([4]; Merlin-null Schwann cells L1P12): confirmed; cell viability ([5]; 10 uM, 24 hours, lines L1, L2 at P12-18, CellTiter-Fluor): < 50 % of DMSO control; Primary Assay (m +/− sd), cell viability [5, 11]: 65 +/− 14 % of DMSO Control

Q: Which results are given for `CC(C)C(=O)Nc1ncc(-c2cc(C(F)F)nn2-c2c(Cl)cccc2Cl)s1` [BMS-5]?
A: mechanism of apoptotic death with respect to caspase-3/7 activity [1]: caspase3/7-independent; PI labeling and BrdU cell cycle profiles ([2]; 5 uM, 22 hours): accumulate in G2/M; Primary Assay (m +/− sd), cell viability [6]: 65 +/− 14 % of DMSO Control; Orthogonal Assay Average of two, cell viability [7]: 63.2 % of DMSO Control

Q: For `Ic1ccccc1CNC1C2CCN(CC2)C1C(c1ccccc1)c1ccccc1` [L-703,606 oxalate salt hydrate, cis-2-(Diphenylmethyl)-N-[(2-iodophenyl)methyl]-1-azabicyclo[2.2.2]octan-3-amine], which “Selectivity Assay, cell viability” value [8] is on record?
A: 33 % of DMSO Control

Q: What about the “Orthogonal Assay Average of two, cell viability” value ([4]; 10 uM) of the same molecule?
A: 40.6 % of DMSO Control

Q: And the “Primary Assay (m +/− sd), cell viability” value [5, 11]?
A: 62 +/− 11 % of DMSO Control

Q: With `CO[C@H]1C[C@@H]2CC[C@@H](C)[C@@](O)(O2)C(=O)C(=O)N2CCCC[C@H]2C(=O)O[C@H]([C@H](C)C[C@@H]2CC[C@@H](O)[C@H](OC)C2)CC(=O)[C@H](C)/C=C(\C)[C@@H](O)[C@@H](OC)C(=O)[C@H](C)C[C@H](C)/C=C/C=C/C=C/1C` [Rapamycin, rapamycin] as the molecule, how does the “Viability of cells (live cell protease)” value [9] read?
A: 20+/−1.4 % of the DMSO control

Q: And the “Selectivity Assay, cell viability” value ([3]; 50 uM)?
A: 30 % of DMSO Control

Q: And the “Orthogonal Assay Average of two, cell viability” value ([4]; 50 uM)?
A: 10.6 % of DMSO Control

Q: What about the “Primary Assay (m +/− sd), cell viability” value ([5]; 50 uM, two merlin-null Schwann cell lines at P13-23) of the same molecule?
A: 18 +/− 3 % of DMSO Control

Q: For chelerythrine chloride, which “apoptotic death (Q1+Q3) of cells” value [10] is on record?
A: 93%
